From US7414071B2, “Methods of treatment with selective EP4 receptor agonists” (Pfizer Inc., priority 2002, dated 2008)

Tested on: New Zealand White male rabbits
Test: In vivo anesthetized rabbit model (hypotensive effect: mean arterial pressure and heart rate)
Procedure: Methods: New Zealand White male rabbits (3-4 kg) are anesthetized with sodium pentobarbital (30 mg/kg, i.v.) and a surgical plane of anesthesia is maintained by a continuous infusion of sodium pentobarbital (16 mg/kg/hr) via an ear vein catheter. A tracheotomy is performed through a ventral midline cervical incision and the rabbits are ventilated with 100% oxygen using a positive pressure ventilator. Body temperature is maintained at 38.5° C. using a heating pad connected to a YSI temperature controller model 72 (Yellow Springs Instruments, Yellow Springs, […].). Fluid-filled catheters are placed in the right jugular vein (for intravenous drug administration) and in the right carotid artery for arterial pressure monitoring and for blood gas analysis using a model 248 blood gas analyzer (Bayer Diagnostics, Norwood, Mass.). The ventilator is adjusted as needed to maintain blood pH and pCO2 within normal physiological ranges for rabbits. […] Blood is sampled after dosing or during the infusion of the test compound to determine plasma concentrations of the test compounds.
Thus, dosing volumes were 0.2 ml/kg (Group A) subcutaneously or 5 ml/h (Groups B, C, and D) as an intravenous (IV) infusion. The term “mgA” means the number of milligrams adjusted for active compound (e.g. corrected for salt etc.).
Dosing: Four groups (Groups A, B, C, and D) of two rabbits each were dosed as follows.

[1] = Group B, 167 μg/kg/h IV infusion
[2] = Group C, 16.7 μg/kg/h IV infusion

SMILES: O=C([O-])c1ccc(CCCN2C(=O)CC[C@@H]2CC[C@@H](O)Cc2cccc(C(F)(F)F)c2)s1.[Na+] [Compound 3M sodium salt]
- duration of hemodynamic effect (Group A, 1 mgA/kg SC): sustained over the entire 4 hour post-dose interval
- effect on heart rate (Group A, 1 mgA/kg SC): increase in heart rate
- effect on mean arterial pressure (Group A, 1 mgA/kg SC): decrease in mean arterial pressure
- onset of hemodynamic effect (Group A, 1 mgA/kg SC): < 2 min
- mean arterial pressure (MAP) (Group A, 1 mgA/kg SC bolus, 5 min post-dose, mean of 2, baseline 92): 69 mm Hg
- heart rate (HR) (Group A, 1 mgA/kg SC bolus, 5 min post-dose, mean of 2, baseline 243): 268 beats/minute
- mean arterial pressure (MAP) (Group A, 1 mgA/kg SC bolus, 10 min post-dose, mean of 2, baseline 92): 59 mm Hg
- heart rate (HR) (Group A, 1 mgA/kg SC bolus, 10 min post-dose, mean of 2, baseline 243): 283 beats/minute
- mean arterial pressure (MAP) (Group A, 1 mgA/kg SC bolus, 15 min post-dose, mean of 2, baseline 92): 60 mm Hg
- heart rate (HR) (Group A, 1 mgA/kg SC bolus, 15 min post-dose, mean of 2, baseline 243): 285 beats/minute
- mean arterial pressure (MAP) (Group A, 1 mgA/kg SC bolus, 30 min post-dose, mean of 2, baseline 92): 59 mm Hg
- heart rate (HR) (Group A, 1 mgA/kg SC bolus, 30 min post-dose, mean of 2, baseline 243): 284 beats/minute
- mean arterial pressure (MAP) (Group A, 1 mgA/kg SC bolus, 60 min post-dose, mean of 2, baseline 92): 59 mm Hg
- heart rate (HR) (Group A, 1 mgA/kg SC bolus, 60 min post-dose, mean of 2, baseline 243): 288 beats/minute
- mean arterial pressure (MAP) (Group A, 1 mgA/kg SC bolus, 90 min post-dose, mean of 2, baseline 92): 59 mm Hg
- heart rate (HR) (Group A, 1 mgA/kg SC bolus, 90 min post-dose, mean of 2, baseline 243): 284 beats/minute
- mean arterial pressure (MAP) (Group A, 1 mgA/kg SC bolus, 120 min post-dose, mean of 2, baseline 92): 58 mm Hg
- heart rate (HR) (Group A, 1 mgA/kg SC bolus, 120 min post-dose, mean of 2, baseline 243): 278 beats/minute
- mean arterial pressure (MAP) (Group A, 1 mgA/kg SC bolus, 150 min post-dose, mean of 2, baseline 92): 57 mm Hg
- heart rate (HR) (Group A, 1 mgA/kg SC bolus, 150 min post-dose, mean of 2, baseline 243): 275 beats/minute
- mean arterial pressure (MAP) (Group A, 1 mgA/kg SC bolus, 180 min post-dose, mean of 2, baseline 92): 60 mm Hg
- heart rate (HR) (Group A, 1 mgA/kg SC bolus, 180 min post-dose, mean of 2, baseline 243): 273 beats/minute
- mean arterial pressure (MAP) (Group A, 1 mgA/kg SC bolus, 210 min post-dose, mean of 2, baseline 92): 61 mm Hg
- heart rate (HR) (Group A, 1 mgA/kg SC bolus, 210 min post-dose, mean of 2, baseline 243): 273 beats/minute
- mean arterial pressure (MAP) (Group A, 1 mgA/kg SC bolus, 240 min post-dose, mean of 2, baseline 92): 65 mm Hg
- heart rate (HR) (Group A, 1 mgA/kg SC bolus, 240 min post-dose, mean of 2, baseline 243): 273 beats/minute
- duration of hemodynamic effect [1]: sustained over the entire 4 hour post-dose interval
- effect on heart rate [1]: increase in heart rate
- effect on mean arterial pressure [1]: decrease in mean arterial pressure
- onset of hemodynamic effect [1]: < 2 min
- mean arterial pressure (MAP) (Group B, 167 μg/kg/hr IV infusion for 4 hours, 5 min, mean of 2, baseline 87): 67 mm Hg
- heart rate (HR) (Group B, 167 μg/kg/hr IV infusion for 4 hours, 5 min, mean of 2, baseline 260): 296 beats/minute
- mean arterial pressure (MAP) (Group B, 167 μg/kg/hr IV infusion for 4 hours, 10 min, mean of 2, baseline 87): 67 mm Hg
- heart rate (HR) (Group B, 167 μg/kg/hr IV infusion for 4 hours, 10 min, mean of 2, baseline 260): 296 beats/minute
- mean arterial pressure (MAP) (Group B, 167 μg/kg/hr IV infusion for 4 hours, 15 min, mean of 2, baseline 87): 69 mm Hg
- heart rate (HR) (Group B, 167 μg/kg/hr IV infusion for 4 hours, 15 min, mean of 2, baseline 260): 296 beats/minute
- mean arterial pressure (MAP) (Group B, 167 μg/kg/hr IV infusion for 4 hours, 30 min, mean of 2, baseline 87): 68 mm Hg
- heart rate (HR) (Group B, 167 μg/kg/hr IV infusion for 4 hours, 30 min, mean of 2, baseline 260): 291 beats/minute
- mean arterial pressure (MAP) (Group B, 167 μg/kg/hr IV infusion for 4 hours, 60 min, mean of 2, baseline 87): 67 mm Hg
- heart rate (HR) (Group B, 167 μg/kg/hr IV infusion for 4 hours, 60 min, mean of 2, baseline 260): 293 beats/minute
- mean arterial pressure (MAP) (Group B, 167 μg/kg/hr IV infusion for 4 hours, 90 min, mean of 2, baseline 87): 57 mm Hg
- heart rate (HR) (Group B, 167 μg/kg/hr IV infusion for 4 hours, 90 min, mean of 2, baseline 260): 282 beats/minute
- mean arterial pressure (MAP) (Group B, 167 μg/kg/hr IV infusion for 4 hours, 120 min, mean of 2, baseline 87): 55 mm Hg
- heart rate (HR) (Group B, 167 μg/kg/hr IV infusion for 4 hours, 120 min, mean of 2, baseline 260): 282 beats/minute
- mean arterial pressure (MAP) (Group B, 167 μg/kg/hr IV infusion for 4 hours, 150 min, mean of 2, baseline 87): 52 mm Hg
- heart rate (HR) (Group B, 167 μg/kg/hr IV infusion for 4 hours, 150 min, mean of 2, baseline 260): 279 beats/minute
- mean arterial pressure (MAP) (Group B, 167 μg/kg/hr IV infusion for 4 hours, 180 min, mean of 2, baseline 87): 53 mm Hg
- heart rate (HR) (Group B, 167 μg/kg/hr IV infusion for 4 hours, 180 min, mean of 2, baseline 260): 285 beats/minute
- mean arterial pressure (MAP) (Group B, 167 μg/kg/hr IV infusion for 4 hours, 210 min, mean of 2, baseline 87): 56 mm Hg
- heart rate (HR) (Group B, 167 μg/kg/hr IV infusion for 4 hours, 210 min, mean of 2, baseline 260): 284 beats/minute
- mean arterial pressure (MAP) (Group B, 167 μg/kg/hr IV infusion for 4 hours, 240 min, mean of 2, baseline 87): 55 mm Hg
- heart rate (HR) (Group B, 167 μg/kg/hr IV infusion for 4 hours, 240 min, mean of 2, baseline 260): 297 beats/minute
- effect on heart rate [2]: slight increase in the heart rate
- effect on mean arterial pressure [2]: slight decrease in mean arterial pressure
- mean arterial pressure (MAP) (Group C, 16.7 μg/kg/hr IV infusion for 4 hours, 5 min, mean of 2, baseline 95): 91 mm Hg
- heart rate (HR) (Group C, 16.7 μg/kg/hr IV infusion for 4 hours, 5 min, mean of 2, baseline 291): 289 beats/minute
- mean arterial pressure (MAP) (Group C, 16.7 μg/kg/hr IV infusion for 4 hours, 10 min, mean of 2, baseline 95): 86 mm Hg
- heart rate (HR) (Group C, 16.7 μg/kg/hr IV infusion for 4 hours, 10 min, mean of 2, baseline 291): 299 beats/minute
- mean arterial pressure (MAP) (Group C, 16.7 μg/kg/hr IV infusion for 4 hours, 15 min, mean of 2, baseline 95): 84 mm Hg
- heart rate (HR) (Group C, 16.7 μg/kg/hr IV infusion for 4 hours, 15 min, mean of 2, baseline 291): 302 beats/minute
- mean arterial pressure (MAP) (Group C, 16.7 μg/kg/hr IV infusion for 4 hours, 30 min, mean of 2, baseline 95): 84 mm Hg
- heart rate (HR) (Group C, 16.7 μg/kg/hr IV infusion for 4 hours, 30 min, mean of 2, baseline 291): 306 beats/minute
- mean arterial pressure (MAP) (Group C, 16.7 μg/kg/hr IV infusion for 4 hours, 60 min, mean of 2, baseline 95): 85 mm Hg
- heart rate (HR) (Group C, 16.7 μg/kg/hr IV infusion for 4 hours, 60 min, mean of 2, baseline 291): 300 beats/minute
- mean arterial pressure (MAP) (Group C, 16.7 μg/kg/hr IV infusion for 4 hours, 90 min, mean of 2, baseline 95): 83 mm Hg
